US10000771B2, “Nuclear targeting sequences” (Yeda Research and Development Co. Ltd., priority 2007, dated 2018)

Assays:
[1] = tested on: Nup153c; experiment: Interaction with recombinant His-Nup153c; assay type: binding; conditions: immunoprecipitated ERK2 incubated with 0.5 μg recombinant His-Nup153c
Description: FIGS. 19A-19C are autoradiographs illustrating that phospho-SPS interacts with importin-7 and releases Nup153c binding without involvment of importin-β. […]. Interaction of ERK2 with Importin-7 is enhanced by EGF stimulation and EPE mutation. HeLa cells overexpressing WT-ERK (WT), ERK-APA (APA), ERK-EPE (EPE) or GFP were serum starved and treated with EGF (50 ng/ml, 10 min). The extracts of the treated cells were then subjected to coimmunoprecipitation using A/G beads pre-conjugated with anti GFP Ab and mild washes. The coimmunoprecipitated importin-7 (first panel) and importin-β (third panel), as well as their loading amounts (panels 2 and 4 respectively) were determined by WB using anti importin-7 (αImp7) and importin-β (αImpβ) Abs. The equal amount of immunoprecipitated ERKs was determined with anti GFP (αGFP; IP) Ab. FIG. 19B. Interaction of 2GFP-SPS and its mutants with importin-7. HeLa cells overexpressing 2GFP, 2GFP-SPS, 2GFP-APA and 2GFP-EPE constructs were subjected to coimmunoprecipitation as described in FIG. 19A (without EGF stimulation). FIG. 19C. Interaction of NUP153 with WTERK2 and its APA and EPE mutants. NUP153c is elevated in APA-ERK2, but reduced in EPE-ERK2. Immunoprecipitated and stringently washed WT-ERK2 (WT), APA-ERK2 (APA) or ERK2 from […] cells pre-treated with or without TPA (250 nM, 15 min) were incubated with 0.5 μg recombinant His-Nup153c. […]

[2] = tested on: TEY motif of ERK2; experiment: TEY phosphorylation by Western blot with anti pTEY-ERK; assay type: cell-based; conditions: COS7 cells, following EGF stimulation
Description: FIG. […] ERK2 phosphorylation was detected by Western blot analysis using anti-phosphoTEY-ERK (αpTEY), and anti ERK Abs (αgERK).
Western Blotting: Cell extract was collected as described above, and aliquots from each sample (20 μg) were separated by 10% SDS-PAGE followed by Western blotting with the appropriate antibodies. The blots were developed with alkaline phosphatase or horseradish peroxidase-conjugated anti-mouse’, anti-rabbit and anti-goat Fab Abs.

[3] = tested on: COS7 cells; experiment: Subcellular fractionation of GFP-ERK2 constructs; assay type: cell-based; conditions: 48 hr after transfection, serum-starved
Description: FIG. 6 is an autoradiograph illustrating the subcellular fractionation of WT-GFP-ERK2 (WT), APA-GFP-ERK2 (APA), or EPE-GFP-ERK2 (EPE). COS7 cells were grown in 10 cm plates and transfected with the above ERK2 constructs. Twenty-four hr after transfection the cells were serum-starved for 16 hr and subjected to cellular fractionation as described under materials and Methods. Western blot analysis of aliquots of the fractions were stained with anti GFP Ab to detect the ERK2 and its mutant, and with anti tubulin and anti c-Jun Abs as markers for the cytoplasmic and nuclear fractions respectively.
Cellular Fractionation: Transfected COS7 cells were starved (0.1% FBS) for 16 h, after which they were washed with ice-cold PBS, suspended in ice-cold buffer H, and centrifuged (12,000×g, 5 min). Then, the nuclear and cytosolic fractions were isolated as described [H. Rubinfeld, T. Hanoch, R. Seger, J. Biol. Chem. 274, 30349 (1999)]. Briefly, the pellets were suspended in 0.1% NP-40 followed by centrifugation (12,000×g, 5 min). The supernatant, containing the cytosolic fraction, was boiled in sample buffer. The pellet was suspended in extraction buffer (420 mM Nacl, 50 mM β-glycerophosphate, 0.5 mM Na3VO4, 1.5 mM MgCl2, 0.2 mM EDTA, 1 mM DTT, 25% glycerol), incubate on ice for 10 min, sonicated (50 W, 2×7 sec), and centrifuged (12,000×g, 5 min). […]

Substance: WT-ERK2: wild-type ERK2 fused to GFP, prepared in pEGFP C1 [reference compound]
- interaction with Nup153 [1]: interacts with Nup153
- time of peak TEY phosphorylation [2]: 5 min
- localized in the nucleus [3]: about 75%
